Experiments:
Acetylcholinesterase = Acetylcholinesterase (Homo sapiens, UniProt P22303); assay: Inhibition of human recombinant AChE using ATCh as substrate preincubated for 20 mins followed by substrate addition and measured for 3 mins by Ellman method
[1] = tested on: Tyrosine-protein kinase ABL1 (Homo sapiens), P00519 [H396P]; assay: Binding affinity to human non-phosphorylated ABL1 H396P mutant (S229 to K512 residues) expressed in mammalian expression system assessed as residual binding level at 10 uM by Kinomescan method relative to control
[2] = biological target: RAC-beta serine/threonine-protein kinase (Homo sapiens) (UniProt P31751); assay: Binding affinity to wild-type human partial length AKT2 expressed in bacterial expression system assessed as residual binding level at 10 uM by Kinomescan method relative to control
[3] = biological target: Calcium/calmodulin-dependent protein kinase type 1G (Homo sapiens) (UniProt Q96NX5); assay: Binding affinity to wild-type human partial length CAMK1G (M1 to A342 residues) expressed in bacterial expression system assessed as residual binding level at 10 uM by Kinomescan method relative to control
[4] = biological target: Cyclin-dependent kinase 5 (Homo sapiens) (UniProt Q00535); assay: Binding affinity to wild-type human full length CDK5 (M1 to P292 residues) expressed in bacterial expression system assessed as residual binding level at 10 uM by Kinomescan method relative to control
Sequence of Cyclin-dependent kinase 5 (Homo sapiens) (Q00535 whole entry, looked up, the tested form may be a part): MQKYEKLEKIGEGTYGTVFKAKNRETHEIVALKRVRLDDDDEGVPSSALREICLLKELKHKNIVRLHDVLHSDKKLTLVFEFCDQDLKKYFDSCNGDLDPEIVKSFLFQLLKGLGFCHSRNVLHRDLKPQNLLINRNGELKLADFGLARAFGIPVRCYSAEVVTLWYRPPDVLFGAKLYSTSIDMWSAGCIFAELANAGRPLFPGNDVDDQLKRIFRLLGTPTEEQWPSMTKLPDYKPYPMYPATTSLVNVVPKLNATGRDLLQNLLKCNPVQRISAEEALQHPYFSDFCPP

[5] = biological target: Cyclin-dependent kinase-like 1 (Homo sapiens) (UniProt Q00532); assay: Binding affinity to wild-type human full length CDKL1 (M1 to I358 residues) expressed in mammalian expression system assessed as residual binding level at 10 uM by Kinomescan method relative to control
[6] = biological target: Dual specificity protein kinase CLK1 (Homo sapiens) (UniProt P49759); assay: Binding affinity to wild-type human full length CLK1 (M1 to I484 residues) expressed in bacterial expression system assessed as residual binding level at 10 uM by Kinomescan method relative to control
Sequence of Dual specificity protein kinase CLK1 (Homo sapiens) (P49759 whole entry, looked up, the tested form may be a part): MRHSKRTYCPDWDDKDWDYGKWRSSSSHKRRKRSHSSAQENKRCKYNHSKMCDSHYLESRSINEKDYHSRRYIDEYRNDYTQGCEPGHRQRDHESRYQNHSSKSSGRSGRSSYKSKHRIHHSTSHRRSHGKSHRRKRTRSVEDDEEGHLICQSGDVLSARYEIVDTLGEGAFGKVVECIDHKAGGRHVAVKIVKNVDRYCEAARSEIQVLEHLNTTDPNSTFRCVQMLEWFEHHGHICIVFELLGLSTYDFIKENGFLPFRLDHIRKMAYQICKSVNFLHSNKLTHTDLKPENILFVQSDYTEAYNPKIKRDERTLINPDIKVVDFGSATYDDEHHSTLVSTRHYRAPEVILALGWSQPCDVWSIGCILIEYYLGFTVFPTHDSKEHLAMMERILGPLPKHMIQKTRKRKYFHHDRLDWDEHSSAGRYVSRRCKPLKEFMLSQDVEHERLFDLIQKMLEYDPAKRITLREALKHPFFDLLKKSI

[7] = biological target: Dual specificity protein kinase CLK2 (Homo sapiens) (UniProt P49760); assay: Binding affinity to wild-type human partial length CLK2 (D144 to R498 residues) expressed in bacterial expression system assessed as residual binding level at 10 uM by Kinomescan method relative to control
[8] = biological target: Receptor-type tyrosine-protein kinase FLT3 (Homo sapiens) (UniProt P36888); assay: Binding affinity to wild-type human partial length FLT3 (V592 to Y969 residues) expressed in bacterial expression system assessed as residual binding level at 10 uM by Kinomescan method relative to control
Sequence of Receptor-type tyrosine-protein kinase FLT3 (Homo sapiens) (P36888 whole entry, the tested form may be a part): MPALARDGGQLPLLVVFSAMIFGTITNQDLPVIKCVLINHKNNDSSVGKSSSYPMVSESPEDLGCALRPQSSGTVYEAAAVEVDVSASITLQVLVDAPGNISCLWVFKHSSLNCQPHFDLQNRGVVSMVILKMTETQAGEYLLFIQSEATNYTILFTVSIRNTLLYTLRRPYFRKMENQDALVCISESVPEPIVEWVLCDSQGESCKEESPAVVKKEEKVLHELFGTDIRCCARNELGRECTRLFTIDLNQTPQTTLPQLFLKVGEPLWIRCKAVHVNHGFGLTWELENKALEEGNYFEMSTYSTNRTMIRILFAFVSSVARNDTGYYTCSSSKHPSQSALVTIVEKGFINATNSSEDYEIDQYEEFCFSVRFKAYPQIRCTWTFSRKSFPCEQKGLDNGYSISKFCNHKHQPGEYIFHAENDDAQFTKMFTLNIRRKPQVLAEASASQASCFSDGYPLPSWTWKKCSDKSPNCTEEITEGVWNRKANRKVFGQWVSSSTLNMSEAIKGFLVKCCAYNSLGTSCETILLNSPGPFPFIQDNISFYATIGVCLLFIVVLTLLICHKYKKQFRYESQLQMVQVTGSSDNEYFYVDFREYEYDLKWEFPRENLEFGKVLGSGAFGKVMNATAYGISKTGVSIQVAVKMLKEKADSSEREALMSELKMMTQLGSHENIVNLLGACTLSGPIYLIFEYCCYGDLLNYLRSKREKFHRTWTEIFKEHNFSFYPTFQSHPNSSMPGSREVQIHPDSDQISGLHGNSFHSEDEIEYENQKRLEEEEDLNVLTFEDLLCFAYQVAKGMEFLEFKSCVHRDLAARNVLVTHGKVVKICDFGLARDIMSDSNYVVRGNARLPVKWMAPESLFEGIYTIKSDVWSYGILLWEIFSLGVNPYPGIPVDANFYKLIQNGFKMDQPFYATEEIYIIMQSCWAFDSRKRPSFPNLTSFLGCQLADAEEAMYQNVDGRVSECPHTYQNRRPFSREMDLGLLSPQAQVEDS

[9] = biological target: Receptor-type tyrosine-protein kinase FLT3 (Homo sapiens) (UniProt P36888); assay: Binding affinity to wild-type human partial length autoinhibited FLT3 (H564 to Y969 residues) expressed in mammalian expression system assessed as residual binding level at 10 uM by Kinomescan method relative to control
[10] = biological target: Inhibitor of nuclear factor kappa-B kinase subunit alpha (Homo sapiens) (UniProt O15111); assay: Binding affinity to wild-type human full length IKK-alpha (M1 to E745 residues) expressed in mammalian expression system assessed as residual binding level at 10 uM by Kinomescan method relative to control
[11] = biological target: Tyrosine-protein kinase ITK/TSK (Homo sapiens) (UniProt Q08881); assay: Binding affinity to wild-type human partial length ITK (R335 to L620 residues) expressed in bacterial expression system assessed as residual binding level at 10 uM by Kinomescan method relative to control
[12] = tested on: Mast/stem cell growth factor receptor Kit (Homo sapiens), P10721 [A829P]; assay: Binding affinity to human partial length KIT A829P mutant (I571 to D952 residues) expressed in mammalian expression system assessed as residual binding level at 10 uM by Kinomescan method relative to control
[13] = biological target: Mitogen-activated protein kinase kinase kinase 1 (Homo sapiens) (UniProt Q13233); assay: Binding affinity to wild-type human partial length MAP3K1 (L1202 to W1512 residues) expressed in mammalian expression system assessed as residual binding level at 10 uM by Kinomescan method relative to control
[14] = biological target: Serine/threonine-protein kinase PAK 5 (Homo sapiens) (UniProt Q9P286); assay: Binding affinity to wild-type human partial length PAK7 (Y400 to H719 residues) expressed in bacterial expression system assessed as residual binding level at 10 uM by Kinomescan method relative to control
[15] = tested on: Phosphatidylinositol 4,5-bisphosphate 3-kinase catalytic subunit alpha isoform (Homo sapiens), P42336 [H1047L]; assay: Binding affinity to human partial length PIK3CA H1047L mutant (R108 to N1068 residues) expressed in mammalian expression system assessed as residual binding level at 10 uM by Kinomescan method relative to control
[16] = tested on: Phosphatidylinositol 4,5-bisphosphate 3-kinase catalytic subunit alpha isoform (Homo sapiens), P42336 [M1043I]; assay: Binding affinity to human partial length PIK3CA M1043I mutant (R108 to N1068 residues) expressed in mammalian expression system assessed as residual binding level at 10 uM by Kinomescan method relative to control
[17] = biological target: Serine/threonine-protein kinase PLK1 (Homo sapiens) (UniProt P53350); assay: Binding affinity to wild-type human partial length PLK1 (A33 to F325 residues) expressed in mammalian expression system assessed as residual binding level at 10 uM by Kinomescan method relative to control
Sequence of Serine/threonine-protein kinase PLK1 (Homo sapiens) (P53350 whole entry, the tested form may be a part): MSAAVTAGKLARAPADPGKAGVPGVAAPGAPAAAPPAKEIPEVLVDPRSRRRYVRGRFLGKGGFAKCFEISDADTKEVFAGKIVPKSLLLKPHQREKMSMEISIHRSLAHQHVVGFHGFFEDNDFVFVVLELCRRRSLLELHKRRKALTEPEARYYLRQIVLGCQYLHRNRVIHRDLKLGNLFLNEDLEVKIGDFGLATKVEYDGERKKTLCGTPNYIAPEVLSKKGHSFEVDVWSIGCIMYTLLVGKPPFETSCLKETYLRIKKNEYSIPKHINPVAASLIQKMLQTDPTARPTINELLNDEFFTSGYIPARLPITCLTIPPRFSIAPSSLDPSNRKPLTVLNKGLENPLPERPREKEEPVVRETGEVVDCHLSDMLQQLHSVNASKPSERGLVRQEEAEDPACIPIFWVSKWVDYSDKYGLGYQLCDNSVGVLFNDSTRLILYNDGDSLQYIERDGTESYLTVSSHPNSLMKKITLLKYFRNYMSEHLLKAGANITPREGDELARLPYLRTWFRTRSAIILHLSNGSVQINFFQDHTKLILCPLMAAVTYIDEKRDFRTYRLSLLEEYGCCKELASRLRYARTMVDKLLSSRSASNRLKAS

[18] = biological target: Protein-tyrosine kinase 2-beta (Homo sapiens) (UniProt Q14289); assay: Binding affinity to wild-type human full length PYK2 (M1 to E967 residues) expressed in bacterial expression system assessed as residual binding level at 10 uM by Kinomescan method relative to control
[19] = biological target: Serine/threonine-protein kinase Sgk1 (Homo sapiens) (UniProt O00141); assay: Binding affinity to wild-type human partial length SGK (I60 to L431 residues) expressed in mammalian expression system assessed as residual binding level at 10 uM by Kinomescan method relative to control
[20] = biological target: STE20-like serine/threonine-protein kinase (Homo sapiens) (UniProt Q9H2G2); assay: Binding affinity to wild-type human partial length SLK (S14 to A307 residues) expressed in bacterial expression system assessed as residual binding level at 10 uM by Kinomescan method relative to control
Sequence of STE20-like serine/threonine-protein kinase (Homo sapiens) (Q9H2G2 whole entry, looked up, the tested form may be a part): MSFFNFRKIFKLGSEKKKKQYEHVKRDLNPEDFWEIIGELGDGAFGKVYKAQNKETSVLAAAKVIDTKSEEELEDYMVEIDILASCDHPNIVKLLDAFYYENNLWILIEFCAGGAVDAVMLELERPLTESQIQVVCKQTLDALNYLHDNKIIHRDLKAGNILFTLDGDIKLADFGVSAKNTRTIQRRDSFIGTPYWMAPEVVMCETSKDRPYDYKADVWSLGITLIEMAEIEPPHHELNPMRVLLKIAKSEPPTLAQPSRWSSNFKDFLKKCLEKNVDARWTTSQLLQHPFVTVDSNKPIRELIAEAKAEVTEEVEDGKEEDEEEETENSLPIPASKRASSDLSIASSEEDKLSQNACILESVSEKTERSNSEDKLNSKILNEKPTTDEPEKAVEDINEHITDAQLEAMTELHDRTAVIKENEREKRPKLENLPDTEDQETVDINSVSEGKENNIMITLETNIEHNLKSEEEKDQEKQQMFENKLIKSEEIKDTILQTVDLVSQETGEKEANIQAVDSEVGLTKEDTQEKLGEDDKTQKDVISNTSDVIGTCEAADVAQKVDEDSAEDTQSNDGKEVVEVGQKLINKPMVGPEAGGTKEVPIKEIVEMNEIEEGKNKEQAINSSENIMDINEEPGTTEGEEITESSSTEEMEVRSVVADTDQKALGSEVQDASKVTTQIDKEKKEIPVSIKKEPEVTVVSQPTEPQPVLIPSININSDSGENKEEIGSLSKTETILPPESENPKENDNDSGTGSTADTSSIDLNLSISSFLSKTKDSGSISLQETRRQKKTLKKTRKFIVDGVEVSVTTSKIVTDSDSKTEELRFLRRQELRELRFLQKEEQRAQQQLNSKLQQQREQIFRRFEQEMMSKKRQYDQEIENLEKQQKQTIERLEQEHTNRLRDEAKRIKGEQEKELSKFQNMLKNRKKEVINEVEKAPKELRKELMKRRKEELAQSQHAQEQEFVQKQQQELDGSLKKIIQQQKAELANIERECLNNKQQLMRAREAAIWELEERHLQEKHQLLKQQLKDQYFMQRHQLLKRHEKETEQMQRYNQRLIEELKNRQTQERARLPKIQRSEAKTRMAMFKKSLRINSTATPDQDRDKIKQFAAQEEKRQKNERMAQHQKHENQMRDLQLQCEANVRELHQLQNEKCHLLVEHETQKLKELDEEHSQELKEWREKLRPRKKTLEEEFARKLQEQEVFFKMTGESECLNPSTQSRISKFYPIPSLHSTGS

[21] = biological target: SRSF protein kinase 3 (Homo sapiens) (UniProt Q9UPE1); assay: Binding affinity to wild-type human partial length SRPK3 (P41 to P567 residues) expressed in bacterial expression system assessed as residual binding level at 10 uM by Kinomescan method relative to control
[22] = biological target: Serine/threonine-protein kinase 33 (Homo sapiens) (UniProt Q9BYT3); assay: Binding affinity to wild-type human full length STK33 (M1 to L514 residues) expressed in bacterial expression system assessed as residual binding level at 10 uM by Kinomescan method relative to control
Sequence of Serine/threonine-protein kinase 33 (Homo sapiens) (Q9BYT3 whole entry, looked up, the tested form may be a part): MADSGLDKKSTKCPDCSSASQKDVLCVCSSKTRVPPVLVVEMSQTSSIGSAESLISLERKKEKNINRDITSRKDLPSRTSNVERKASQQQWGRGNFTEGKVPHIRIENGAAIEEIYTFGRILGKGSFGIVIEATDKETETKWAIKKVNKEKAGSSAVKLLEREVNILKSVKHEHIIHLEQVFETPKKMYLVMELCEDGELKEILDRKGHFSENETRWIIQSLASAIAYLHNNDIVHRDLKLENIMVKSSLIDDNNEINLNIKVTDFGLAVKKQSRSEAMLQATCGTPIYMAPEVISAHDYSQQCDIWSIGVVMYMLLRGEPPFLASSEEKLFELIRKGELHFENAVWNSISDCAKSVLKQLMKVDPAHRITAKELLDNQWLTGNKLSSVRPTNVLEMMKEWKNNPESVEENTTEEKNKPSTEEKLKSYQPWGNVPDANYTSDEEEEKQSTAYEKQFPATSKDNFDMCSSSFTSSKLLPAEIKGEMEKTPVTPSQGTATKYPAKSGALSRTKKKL

[23] = biological target: Serine/threonine-protein kinase TAO3 (Homo sapiens) (UniProt Q9H2K8); assay: Binding affinity to wild-type human partial length TAOK3 (M1 to T316 residues) expressed in mammalian expression system assessed as residual binding level at 10 uM by Kinomescan method relative to control
Sequence of Serine/threonine-protein kinase TAO3 (Homo sapiens) (Q9H2K8 whole entry, the tested form may be a part): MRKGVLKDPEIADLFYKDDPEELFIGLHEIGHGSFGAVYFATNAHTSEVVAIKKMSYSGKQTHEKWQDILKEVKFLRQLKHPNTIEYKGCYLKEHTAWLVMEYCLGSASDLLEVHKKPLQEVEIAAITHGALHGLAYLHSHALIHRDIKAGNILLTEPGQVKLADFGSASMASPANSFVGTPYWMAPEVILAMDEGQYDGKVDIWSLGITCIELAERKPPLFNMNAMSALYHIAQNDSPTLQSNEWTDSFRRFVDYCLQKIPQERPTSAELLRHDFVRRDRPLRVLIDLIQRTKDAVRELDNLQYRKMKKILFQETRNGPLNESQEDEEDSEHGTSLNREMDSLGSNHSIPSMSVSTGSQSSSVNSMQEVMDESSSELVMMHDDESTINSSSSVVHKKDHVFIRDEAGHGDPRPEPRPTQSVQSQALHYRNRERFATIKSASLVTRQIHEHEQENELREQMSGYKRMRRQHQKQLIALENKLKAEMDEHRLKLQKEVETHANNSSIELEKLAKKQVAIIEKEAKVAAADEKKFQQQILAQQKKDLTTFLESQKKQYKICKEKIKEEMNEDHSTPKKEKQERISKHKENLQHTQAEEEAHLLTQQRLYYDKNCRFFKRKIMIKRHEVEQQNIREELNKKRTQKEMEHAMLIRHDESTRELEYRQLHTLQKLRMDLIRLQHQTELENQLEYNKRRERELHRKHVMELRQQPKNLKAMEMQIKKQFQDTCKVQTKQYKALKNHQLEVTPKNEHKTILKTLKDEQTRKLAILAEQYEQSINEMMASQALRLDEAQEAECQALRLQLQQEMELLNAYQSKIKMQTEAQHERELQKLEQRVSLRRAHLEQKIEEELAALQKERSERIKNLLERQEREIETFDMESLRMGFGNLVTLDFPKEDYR

[24] = biological target: Dual specificity protein kinase TTK (Homo sapiens) (UniProt P33981); assay: Binding affinity to wild-type human partial length TTK (N505 to V798 residues) expressed in bacterial expression system assessed as residual binding level at 10 uM by Kinomescan method relative to control

SMILES: O=C(Nc1cc(-c2cn(CCNc3c4c(nc5ccccc35)CCCC4)nn2)ccn1)Nc1cccc2c1C1CCCCN1C2=O (racemic)
- IC50 (Acetylcholinesterase): 11.4 nM
- Activity [1]: 1.8%
- Activity [2]: 80%
- Activity [3]: 44%
- Activity [4]: 35%
- Activity [5]: 3%
- Activity [6]: 4.5%
- Activity [7]: 24%
- Activity [8]: 0.55%
- Activity [9]: 12%
- Activity [10]: 53%
- Activity [11]: 82%
- Activity [12]: 3.9%
- Activity [13]: 100%
- Activity [14]: 8.9%
- Activity [15]: 93%
- Activity [16]: 100%
- Activity [17]: 81%
- Activity [18]: 74%
- Activity [19]: 0.3%
- Activity [20]: 30%
- Activity [21]: 15%
- Activity [22]: 6.7%
- Activity [23]: 3.8%
- Activity [24]: 9.9%
